Legend:
[1] = Off-rate of FK-506 binding protein (FKBP) drug complex from their complexes with calcineurin.; format: ADME
[2] = Inhibition of calcineurin phosphatase activity by the compound
[3] = Relative binding affinity of compound for FK-506 binding protein (FKBP)
T-cell = test: Compound was evaluated for inhibition of T-cell proliferation induced by PMA-ionomycin.; format: functional
[4] = Relative binding affinity of compound for FK506 binding protein (FKBP)

Compound | Off-rate [1] [min] | IC50 [2] [nM] | IC50 [3] [nM] | T-cell proliferation inhibition (T-cell) [nM] | IC50 [4] [nM]
CC[C@@H]1/C=C(/C)C[C@H](C)C[C@H](OC)C2O[C@@](O)(C(=O)C(=O)N3CCCC[C@H]3C(=O)O[C@H](/C(C)=C/[C@@H]3CC[C@@H](Oc4ccc5c(ccn5CCO)c4)[C@H](OC)C3)[C@H](C)[C@@H](O)CC1=O)[C@H](C)C[C@@H]2OC | 254 | 11.4 | 5.06 | 0.19 | 
C=CC[C@@H]1C=C(C)CC(C)C[C@H](OC)[C@H]2O[C@@](O)(C(=O)C(=O)N3CCCC[C@H]3C(=O)O[C@H](/C(C)=C/[C@@H]3CC[C@@H](O)[C@H](OC)C3)[C@H](C)[C@@H](O)CC1=O)[C@H](C)C[C@@H]2OC (single isomer, unassigned) [TACROLIMUS ANHYDROUS] | 15.1 | 11.1 |  | 0.3 | 0.39
CC[C@@H]1/C=C(/C)[C@@H](O)[C@@H](C)C[C@H](OC)[C@H]2O[C@@](O)(C(=O)C(=O)N3CCCC[C@H]3C(=O)O[C@H](/C(C)=C/[C@@H]3CC[C@@H](O)[C@H](OC)C3)[C@H](C)[C@@H](O)CC1=O)[C@H](C)C[C@@H]2OC |  | 2500 | 0.7 |  | 
CC[C@@H]1/C=C(/C)[C@@H](O)[C@H](C)C[C@H](OC)C2O[C@@](O)(C(=O)C(=O)N3CCCC[C@H]3C(=O)O[C@H](/C(C)=C/[C@@H]3CC[C@@H](Oc4ccc5c(ccn5C)c4)[C@H](OC)C3)[C@H](C)[C@@H](O)CC1=O)[C@H](C)C[C@@H]2OC |  | 79 |  | 5.1 | 
CC[C@@H]1/C=C(/C)C[C@H](C)C[C@H](OC)C2O[C@@](O)(C(=O)C(=O)N3CCCC[C@H]3C(=O)O[C@H](/C(C)=C/[C@@H]3CC[C@@H](Oc4ccc5c(ccn5CC)c4)[C@H](OC)C3)[C@H](C)[C@@H](O)CC1=O)[C@H](C)C[C@@H]2OC |  | 8.21 | 27 | 0.78 | 
